Data reported in patent publication US20230061736A1, “GPR119 AGONISTS” (Kallyope, Inc., priority 2019, published 2023).
pEC50: −log10 of the molar value.

Target: T1, human GPR119 (hGPR119) (Homo sapiens, UniProt Q8TDV5)
T1 construct: expressed in transfected cells
T1 sequence (Q8TDV5 1-335): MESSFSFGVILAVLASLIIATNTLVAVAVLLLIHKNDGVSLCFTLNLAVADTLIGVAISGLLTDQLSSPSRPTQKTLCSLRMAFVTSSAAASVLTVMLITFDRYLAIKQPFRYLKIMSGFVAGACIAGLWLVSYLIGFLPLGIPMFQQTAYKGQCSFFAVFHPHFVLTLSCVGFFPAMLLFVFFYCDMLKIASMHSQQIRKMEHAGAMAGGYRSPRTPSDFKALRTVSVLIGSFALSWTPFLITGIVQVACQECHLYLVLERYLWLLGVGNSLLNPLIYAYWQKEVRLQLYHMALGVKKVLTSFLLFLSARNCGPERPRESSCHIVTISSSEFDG
Experiment: cAMP accumulation assay (cAMP Gs dynamic HTRF kit)
Format: cell-based
Conditions: CHO-K1 cells stably expressing hGPR119, 4-parameter fit; for Emax: 1 h, % activity normalized to Max/Min controls; for pEC50: cAMP accumulation
Summary of the method: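 CHO-K1 cells stably expressing hGPR119, used as assay-ready frozen stocks at ~10,000 cells/well, exposed to compound dose-response in stimulation buffer with Tween 80 for 60 min at 37° C. cAMP read by HTRF (665/620 nm ratio), normalised to Max/Min controls; EC50 and Max activity from 4-parameter fit.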

Row | Structure (SMILES) | Emax [%] | pEC50
1 | O=C(Cc1ccc(OCCCC2CCN(c3ncc(Cl)cn3)CC2)cc1F)NCCCS(=O)(=O)O [Example 11, 3-[[2-[4-[3-[1-(5-chloropyrimidin-2-yl)-4-piperidyl]propoxy]-2-fluoro-phenyl]acetyl]amino]propane-1-sulfonic acid] | ≥ 130 | 5.00 to 6.00
2 | COCc1cnc(N2CCC(CCCOc3cc(F)c(CC(=O)N4CC[C@@H](CNC(CO)(CO)CO)C4)c(F)c3)CC2)nc1 [Example 158, 2-[2,6-difluoro-4-[3-[1-[5-(methoxymethyl)pyrimidin-2-yl]-4-piperidyl]propoxy]phenyl]-1-[(3S)-3-[[[2-hydroxy-1,1-bis(hydroxymethyl)ethyl]amino]methyl]pyrrolidin-1-yl]ethanone] | 100 to 130 | ≥ 7.00
3 | O=C(Cc1ccc(OCCC2CC(C3CCN(c4ncc(Cl)cn4)CC3)C2)cc1F)N1CC(CNC[C@H](O)[C@@H](O)[C@H](O)[C@H](O)CO)C1 (stereo partly drawn) [Example 123, 2-[4-[2-[3-[1-(5-chloropyrimidin-2-yl)-4-piperidyl]cyclobutyl]ethoxy]-2-fluoro-phenyl]-1-[3-[[[(2S,3R,4R,5R)-2,3,4,5,6-pentahydroxyhexyl]amino]methyl]azetidin-1-yl]ethanone] | 100 to 130 | 6.00 to 7.00
4 | O=C(CCC1CN(C(=O)Cc2ccc(OCCCC3CCN(c4ncc(Cl)cn4)CC3)cc2F)C1)NCC(O)(CO)CO [Example 35, 3-[1-[2-[4-[3-[1-(5-chloropyrimidin-2-yl)-4-piperidyl]propoxy]-2-fluoro-phenyl]acetyl]azetidin-3-yl]-N-[2,3-dihydroxy-2-(hydroxymethyl)propyl]propanamide] | ≥ 130 | ≥ 7.00
5 | COCc1cnc(N2CCC([C@H]3C[C@H]3CCOc3ccc(CC(=O)N4CC[C@@H](CNCC(O)(CO)CO)C4)c(F)c3)CC2)nc1 [Example 162, 2-[2-fluoro-4-[2-[(1S,2R)-2-[1-[5-(methoxymethyl)pyrimidin-2-yl]-4-piperidyl]cyclopropyl]ethoxy]phenyl]-1-[(3S)-3-[[[2,3-dihydroxy-2-(hydroxymethyl)propyl]amino]methyl]pyrrolidin-1-yl]ethanone] | 100 to 130 | ≥ 7.00
6 | O=C(Cc1c(F)cc(OCCCC2CC23CCN(c2ncc(Cl)cn2)CC3)cc1F)N1CC(CNC[C@H](O)[C@@H](O)[C@H](O)[C@H](O)CO)C1 (some centres unmarked) [Example 143] | 100 to 130 | 6.00 to 7.00
7 | CC1(OC(=O)N2CCC(CCCOc3ccc(CC(=O)N4CC(CNC[C@H](O)[C@@H](O)[C@H](O)[C@H](O)CO)C4)c(F)c3)CC2)CC1 (racemic) [Example 119, (1-methylcyclopropyl) 4-[3-[3-fluoro-4-[2-oxo-2-[3-[[[rac-(2S,3R,4R,5R)-2,3,4,5,6-pentahydroxyhexyl]amino]methyl]azetidin-1-yl]ethyl]phenoxy]propyl]piperidine-1-carboxylate] | 100 to 130 | 6.00 to 7.00
8 | O=C(Cc1ccc(OCCCC2CCN(c3ncc(Cl)cn3)CC2)cc1F)N1CC[C@@H](CNC(CO)(CO)CO)C1 [Example 148, 2-[4-[3-[1-(5-chloropyrimidin-2-yl)-4-piperidyl]propoxy]-2-fluoro-phenyl]-1-[(3S)-3-[[[2-hydroxy-1,1-bis(hydroxymethyl)ethyl]amino]methyl]pyrrolidin-1-yl]ethanone] | ≥ 130 | ≥ 7.00
9 | COCC1(CNCC(CO)(CO)CO)CCN(C(=O)Cc2ccc(OCCCC3CCN(c4ncc(Cl)cn4)CC3)cc2F)C1 (centres unmarked) [Example 122, 2-[4-[3-[1-(5-chloropyrimidin-2-yl)-4-piperidyl]propoxy]-2-fluoro-phenyl]-1-[3-[[[3-hydroxy-2,2-bis(hydroxymethyl)propyl]amino]methyl]-3-(methoxymethyl)pyrrolidin-1-yl]ethanone] | 100 to 130 | ≥ 7.00
10 | CCCc1cnc(N2CCC(CCCOc3ccc(CC(=O)N4CC(CNCC(CO)CO)C4)c(F)c3)CC2)nc1 [Example 70, 2-(2-fluoro-4-(3-(1-(5-propylpyrimidin-2-yl)piperidin-4-yl)propoxy)phenyl)-1-(3-(((3-hydroxy-2-(hydroxymethyl)propyl)amino)methyl)azetidin-1-yl)ethan-1-one] | 100 to 130 | ≥ 7.00
11 | O=C(Cc1ccc(OCCCC2CC23CCN(c2ncc(Cl)cn2)CC3)cc1F)N1CC(CNC[C@H](O)[C@@H](O)[C@H](O)[C@H](O)CO)C1 (stereo partly drawn) [Example 142, 2-[4-[3-[6-(5-chloropyrimidin-2-yl)-6-azaspiro[2.5]octan-2-yl]propoxy]-2-fluoro-phenyl]-1-[3-[[[(2S,3R,4R,5R)-2,3,4,5,6-pentahydroxyhexyl]amino]methyl]azetidin-1-yl]ethanone] | 100 to 130 | 6.00 to 7.00
12 | CCOc1cnc(N2CCC(CCCOc3cc(F)c(CC(=O)N4CC[C@H](C(=O)NC[C@H](O)[C@@H](O)[C@H](O)[C@H](O)CO)C4)c(F)c3)CC2)nc1 [Example 130, (3S)-1-[2-[4-[3-[1-(5-ethoxypyrimidin-2-yl)-4-piperidyl]propoxy]-2,6-difluoro-phenyl]acetyl]-N-[(2S,3R,4R,5R)-2,3,4,5,6-pentahydroxyhexyl]pyrrolidine-3-carboxamide] | 100 to 130 | ≥ 7.00
13 | O=C(Cc1ccc(OCCCC2CCN(c3ncc(Cl)cn3)CC2)cc1F)NC(CO)(CO)CO [Example 5, 2-[4-[3-[1-(5-chloropyrimidin-2-yl)-4-piperidyl]propoxy]-2-fluoro-phenyl]-N-[2-hydroxy-1,1-bis(hydroxymethyl)ethyl]acetamide] | 100 to 130 | 6.00 to 7.00
14 | O=C(NCCCS(=O)(=O)O)C1CN(C(=O)Cc2ccc(OCCCC3CCN(c4ncc(Cl)cn4)CC3)cc2F)C1 [Example 172, 3-[[1-[2-[4-[3-[1-(5-chloropyrimidin-2-yl)-4-piperidyl]propoxy]-2-fluoro-phenyl]acetyl]azetidine-3-carbonyl]amino]propane-1-sulfonic acid] | 100 to 130 | ≥ 7.00
15 | COCc1cnc(N2CCC(CCCOc3ccc(CC(=O)N4CC(CNCCNC(=O)NC(CO)(CO)CO)C4)c(F)c3)CC2)nc1 [Example 81, 1-[2-[[1-[2-[2-fluoro-4-[3-[1-[5-(methoxymethyl)pyrimidin-2-yl]-4-piperidyl]propoxy]phenyl]acetyl]azetidin-3-yl]methylamino]ethyl]-3-[2-hydroxy-1,1-bis(hydroxymethyl)ethyl]urea] | 100 to 130 | 
16 | O=C(Cc1ccc(OCCCC2CCN(c3ncc(Cl)cn3)CC2)cc1F)N1CCC(O)(CNC[C@H](O)[C@H](O)[C@H](O)CO)C1 (stereo partly drawn) [Example 186, 2-[4-[3-[1-(5-chloropyrimidin-2-yl)-4-piperidyl]propoxy]-2-fluoro-phenyl]-1-[3-hydroxy-3-[[[(2S,3S,4R)-2,3,4,5-tetrahydroxypentyl]amino]methyl]pyrrolidin-1-yl]ethanone] | ≥ 130 | ≥ 7.00
17 | NS(=O)(=O)CCCCNC(=O)Cc1ccc(OCCCC2CCN(c3ncc(Cl)cn3)CC2)cc1F [Example 14, 2-[4-[3-[1-(5-chloropyrimidin-2-yl)-4-piperidyl]propoxy]-2-fluoro-phenyl]-N-(4-sulfamoylbutyl)acetamide] | ≥ 130 | ≥ 7.00
18 | O=C(Cc1ccc(OCCCC2CCN(c3ncc(Cl)cn3)CC2)cc1F)NCCCCCNC[C@H](O)[C@@H](O)[C@H](O)[C@H](O)CO [Example 3] | ≥ 130 | 6.00 to 7.00
19 | CCOc1cnc(N2CCC(CCCOc3cc(F)c(CC(=O)N4CC[C@@H](CNCC(CO)(CO)CO)C4)c(F)c3)CC2)nc1 [Example 157, 2-[4-[3-[1-(5-ethoxypyrimidin-2-yl)-4-piperidyl]propoxy]-2,6-difluoro-phenyl]-1-[(3S)-3-[[[3-hydroxy-2,2-bis(hydroxymethyl)propyl]amino]methyl]pyrrolidin-1-yl]ethanone] | ≥ 130 | ≥ 7.00
20 | CC(C)OC(=O)N1CCC2(CC1)CC2CCCOc1ccc(CC(=O)N2CC(CNC[C@H](O)[C@@H](O)[C@H](O)[C@H](O)CO)C2)c(F)c1 (stereo partly drawn) [Example 145, isopropyl 2-[3-[3-fluoro-4-[2-oxo-2-[3-[[[(2S,3R,4R,5R)-2,3,4,5,6-pentahydroxyhexyl]amino]methyl]azetidin-1-yl]ethyl]phenoxy]propyl]-6-azaspiro[2.5]octane-6-carboxylate] | 50 to 100 | 5.00 to 6.00
21 | O=C(NCCCCS(=O)(=O)O)C1CN(C(=O)Cc2ccc(OCCCC3CCN(c4ncc(Cl)cn4)CC3)cc2F)C1 [Example 173, 4-[[1-[2-[4-[3-[1-(5-chloropyrimidin-2-yl)-4-piperidyl]propoxy]-2-fluoro-phenyl]acetyl]azetidine-3-carbonyl]amino] butane-1-sulfonic acid] | 100 to 130 | 
22 | COCc1cnc(N2CCC(CCCOc3cc(F)c(CC(=O)N4CC[C@@H](CNC[C@H](O)[C@@H](O)[C@H](O)[C@H](O)CO)C4)c(F)c3)CC2)nc1 [Example 135, 2-[2,6-difluoro-4-[3-[1-[5-(methoxymethyl)pyrimidin-2-yl]-4-piperidyl]propoxy]phenyl]-1-[(3S)-3-[[[(2S,3R,4R,5R)-2,3,4,5,6-pentahydroxyhexyl]amino]methyl]pyrrolidin-1-yl]ethanone] | 100 to 130 | ≥ 7.00
23 | CCc1cnc(N2CCC(CCCOc3ccc(CC(=O)N4CC(CNCC(O)(CO)CO)C4)c(F)c3)CC2)nc1 [Example 63, 1-(3-(((2,3-dihydroxy-2-(hydroxymethyl)propyl)amino)methyl)azetidin-1-yl)-2-(4-(3-(1-(5-ethylpyrimidin-2-yl)piperidin-4-yl)propoxy)-2-fluorophenyl)ethan-1-one] | ≥ 130 | ≥ 7.00
